“And” between values parts separate entries of the source, which are not always exact repeats. Equal values may be shown once. Read-outs that look alike come from different tables or passages of the source.
Tests used:
[1] = test system: human T-cell acute lymphoblastic leukemia (T-ALL) cell line, DND-41; test: Antitumor efficacy against advanced DND-41 tumors implanted in SCID mice; format: in vivo; details: days 18, 21, 24, 27; for TFS = tumor free survivors: day 160; for T-C = tumor growth delay: median time to reach 750 mg
Experimental: This efficacy may be quantified, for example, by the log10 cell kill, which is determined according to the following formula:
log10 cell kill=T−C (days)/3.32×Td
in which T−C represents the tumor growth delay, which is the median time in days for the tumors of the treated group (T) and the tumors of the control group (C) to reach a predetermined value (1 g for example), and Td represents the time in days needed for the volume of the tumor to double in the control animals [T. H. Corbett et al., Cancer, 40: 2660-2680 (1977); F. M. Schabel et al., Cancer Drug Development, Part B, Methods in Cancer Research, 17: 3-51, New York, Academic Press Inc. (1979)]. A product is considered to be active if log10 cell kill is greater than or equal to 0.7. A product is considered to be very active if log10 cell kill is greater than 2.8.
The tumors are measured 1 to 5 times a week, depending on the tumor doubling time, until the tumor reaches approximately 2 g, or until the animal dies (if this occurs before the tumor reaches 2 g). The animals are necropsied immediately after euthanasia or death.
Tumor doubling time=3.4 days.

[2] = days 18, 21, 24, 27; for BWC = body weight change: day in parentheses in cell
Experimental: The animals subjected to the experiment, generally mice, are subcutaneously grafted bilaterally with 30 to 60 mg of a tumor fragment on day 0. The animals bearing tumors are randomized based on their tumor size before being subjected to the various treatments and controls. Chemotherapy begins when tumors have reached a predetermined size after grafting, depending on the type of tumor, and the animals are observed every day. […] The groups are then weighed once or twice a week until the end of the trial.
The selected tumor model was a transplantable human T-cell acute lymphoblastic leukemia (T-ALL) cell line, DND-41, implanted in SCID mice.
Hu38SB19 was formulated in phosphate buffer saline, without Ca^2+ and Mg^2+, pH7.4. Hu38SB19 was administered intravenously on days 18, 21, 24, 27 after tumor implantation.

[3] = Palmo Ara-C 22.3 mg/kg/inj SC (total 89.2)
[4] = Palmo Ara-C 36.0 mg/kg/inj SC (total 144.0)
[5] = Palmo Ara-C 58.0 mg/kg/inj SC (total 232.0)
[6] = hu38SB19 40.0 mg/kg/inj IV (total 160.0)

**Q.** Which “comment (activity class)” value [1, 3] does the source give for CCCCCCCCCCCCCCCC(=O)Nc1ccn([C@@H]2O[C@H](CO)[C@@H](O)[C@@H]2O)c(=O)n1 [Palmo Ara-C] here?
**A.** Active

**Q.** And the log10 cell kill [1, 3]?
**A.** 2.0

**Q.** And the “TFS = tumor free survivors” value [1, 3]?
**A.** 0/6

**Q.** And the “T-C = tumor growth delay” value [1, 3]?
**A.** 22.1 days

**Q.** And the log10 cell kill [1, 4]?
**A.** 4.3

**Q.** What about the “TFS = tumor free survivors” value [1, 4] of the same molecule?
**A.** no TFS and 0/6

**Q.** And the “T-C = tumor growth delay” value [1, 4]?
**A.** 48.6 days

**Q.** What about the log10 cell kill [1, 5] of the same molecule?
**A.** 5.4

**Q.** And the “comment (activity class)” value ([1]; Palmo Ara-C 58.0 mg/kg/inj SC (total 232.0), HNTD)?
**A.** HNTD—highly active

**Q.** What about the “TFS = tumor free survivors” value [1, 5] of the same molecule?
**A.** 3/6

**Q.** What about the “T-C = tumor growth delay” value [1, 5] of the same molecule?
**A.** 60.5 days

**Q.** And the “BWC = body weight change” value [2, 3]?
**A.** −0.5 (32)

**Q.** And the “BWC = body weight change” value [2, 4]?
**A.** −4.6 (30)

**Q.** And the “BWC = body weight change” value [2, 5]?
**A.** −6.1 (31)

**Q.** And the “BWC = body weight change” value ([2]; Palmo Ara-C 96.3 mg/kg/inj SC (total 385.2))?
**A.** −26.6 (31)

**Q.** What about the “highest nontoxic dose (HNTD)” value ([2]; Palmo Ara-C alone, SC) of the same molecule?
**A.** 58.0 mg/kg/inj

**Q.** Which log10 cell kill [1, 6] does the source give for “hu38SB19: humanized 38SB19 anti-CD38 antibody; VH SEQ ID NO: 66, VL chosen from SEQ ID NOS: 62 and 64” here?
**A.** 0.5

**Q.** And the “TFS = tumor free survivors” value [1, 6]?
**A.** 0/6

**Q.** And the “comment (activity class)” value ([1]; hu38SB19 40.0 mg/kg/inj IV (total 160.0), highest dose tested, 40 mg/kg)?
**A.** HDT—Inactive

**Q.** What about the “comment (activity class)” value ([1]; hu38SB19 40.0 mg/kg/inj IV (total 160.0), highest dose tested, listed as hu38 DB19) of the same molecule?
**A.** not active

**Q.** And the “T-C = tumor growth delay” value [1, 6]?
**A.** 6.1 days

**Q.** What about the “drug death (deaths/mice treated)” value [2, 6] of the same molecule?
**A.** 0/6

**Q.** What about the “BWC = body weight change” value [2, 6] of the same molecule?
**A.** −2.1 (19)

Source: patent US20120093806A1, “ANTITUMOR COMBINATIONS CONTAINING ANTIBODIES RECOGNIZING SPECIFICALLY CD38 AND CYTARABINE” (SANOFI-AVENTIS, priority 2008, published 2012)
